What is called Ki is a measure of affinity in units of concentration, obtained from inhibition or displacement. Broadly, the EC50 is the midpoint of the concentration-response curve.

Molecules are shown by their SMILES.

The source of these data is patent publication US20040224995A1 (University of North Texas Health Science Center at Fort …, priority 2003, published 2004).

Data set [1] has as its system HT-22 cells. Kind of data set: HT-22 cell viability during glutamate exposure (calcein AM assay). The following applies: for neuroprotective effect of prostaglandins against glutamate toxicity: added 24 h before glutamate (15 mM), viability 15 h later. Format: cell-based. From the text: Although not wanting to be bound by theory, the toxicity of glutamate in HT-22 (32) and C6 glioma (33) cell lines is mediated through oxidative stress. HT-22 cells lack ionotropic N-methyl-D-aspartate (“NMDA”) glutamate receptors, and the glutamate-induced cell death appears to occur via a slow onset oxidative stress (32,34,35). Glutamate blocks cystine uptake by inhibiting the glutamate/cystine antiporter in both HT-22 (32) and C6 glioma (33) cell lines. Since cysteine is required for glutathione (“GSH”) synthesis, the intracellular concentration of GSH decreases as a consequence. BSO depletes intracellular glutathione by inhibiting γ-glutamylcysteine synthetase, the rate-limiting enzyme in glutathione synthesis (33). […] Troglitazone further protected HT-22 (FIG. 14) and RGC-5 (FIG. 15) against BSO. The cell viability was taken at time points around about 14 to 24 hours post-insult time. In some of the experiments, the viability of cells was determined using 2.5 μM calcein AM assay in phosphate-buffered saline (PBS 1×). After 25 minutes of incubation, live cells were distinguished by the presence of intracellular esterase activity, which cleaves the calcein AM dye, producing a bright green fluorescence, as shown in FIG. 22. Viability was measured in Relative Fluorescent Units (“RFU”), and expressed as percentage of vehicle-treated control values.
15d-PGJ2 and two TZD's (e.g. troglitazone and ciglitazone) were tested for their ability to protect HT-22 cells against glutamate toxicity. […] HT-22 cells were treated with 15-dPGJ2 twenty-four hours prior to a glutamate insult (15 mM). […] The data of FIG. 24 was quantified using the calcein AM assay (see FIG. 22). Results are expressed in % survival of the control (non-glutamate-treated) cultures. DMSO received the vehicle only for 15d-PGJ2. Shown are mean±SEM for 6. The asterisk (“*”) indicates p<0.05 vs. respective control.
In order to conduct these experiments, the following compounds: PGA1; PGA2; PGJ2; Δ^12PGJ2; and 15d-PGJ2 were ordered from Biomol, Plymouth Meeting, Pa. HT-22, an immortalized mouse hippocampal cell line, C6 rat glioma, RGC-5 retinal ganglion cells were used. Cells were grown to confluence in DMEM media, and supplemented with 10% charcoal/dextran-treated fetal bovine serum (“FBS”), and […] gentamycin at 37° C. under 95% air, 5% CO2. HT-22, C6, and RGC-5 cells were plated at a density of 50,000, 35,000, and 10,000 cells/ml, respectively, in 96-well plates. Wells were pre-treated with cyclopentenone PGs at various times prior to being subjected to glutamate, hydrogen peroxide (H2O2), or BSO insults.
The WY-14643, Ciglitazone, Troglitazone, 9-cis retinoic acid, and 15d-PGJ2 compounds were purchased from Biomol (Plymouth Meeting, Pa.). L-165041 and L-783483 were kindly provided by Merck Laboratories. The cell lines used were HT-22, an immortalized mouse hippocampal cell line, and SK—N—SH, a human neuroblastoma cell line. The HT-22 cells were obtained from David Schubert (Salk Institute, San Diego, Calif.). The HT-22 line was originally selected from HT-4 cells based on glutamate sensitivity. HT-4 cells were immortalized from primary hippocampal neurons using a temperature-sensitive SV-40 T antigen (Morimoto and Koshland, 1990). SK—N—SH were obtained from ATCC (Manassas, Va.). HT-22 and SK—N—SH cells were grown to confluence in DMEM and RPMI-1640 media, respectively, and supplemented with 10% charcoal/dextran-treated fetal bovine serum (FBS), and 5 mg/ml gentamycin at 37° C. under 95% air, 5% CO2. HT-22 cells were plated at a density of 50,000 cells/ml (5,000 cells/well), and SK—N—SH were plated at a density of 120,000 to 150,000 cells/ml (12,000 to 15,000 cells/well) in 96-well plates. In most studies, wells were pre-treated with PPAR ligands over a wide dose range at various times prior to being subjected to either glutamate, hydrogen peroxide (H2O2), or serum deprivation insults. In some studies, the insults were applied prior to the addition of the PPAR ligand. […]

Data set [2] concerns the target PPAR-γ. The following applies: cited from earlier work.
In data set [3] the test system is PPARγ. Particulars: Berger et al., 1999; cited from earlier work.
Data set [4] concerns the target T1, PPAR-β (Homo sapiens, UniProt Q03181).
T1 sequence (Q03181 1-441): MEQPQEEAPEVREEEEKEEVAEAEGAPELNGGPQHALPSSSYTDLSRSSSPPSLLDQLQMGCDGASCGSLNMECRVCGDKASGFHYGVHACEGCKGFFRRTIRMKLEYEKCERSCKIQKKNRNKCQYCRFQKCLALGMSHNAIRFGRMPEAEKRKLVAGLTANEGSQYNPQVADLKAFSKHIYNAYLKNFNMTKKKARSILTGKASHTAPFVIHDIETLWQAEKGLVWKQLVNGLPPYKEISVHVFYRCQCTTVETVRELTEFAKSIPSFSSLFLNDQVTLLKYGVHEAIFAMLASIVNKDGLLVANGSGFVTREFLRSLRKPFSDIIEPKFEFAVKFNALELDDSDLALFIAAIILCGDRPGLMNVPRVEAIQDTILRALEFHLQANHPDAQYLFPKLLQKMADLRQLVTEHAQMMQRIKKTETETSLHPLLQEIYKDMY
The following applies: Berger et al., 1999; read-out: EC50 for activation of PPAR-β; cited from earlier work.

In data set [5] the test system is infarct after MCA occlusion. The following applies: intraventricular, 660 ng, 30 min before MCA occlusion; Satoh et al.; cited from earlier work.
Data set [6] relates to PPAR alpha. Particulars: Issemann and Green, 1990; read-out: EC50 for activation of PPAR alpha; cited from earlier work.

On to `CC1=C(/C=C/C(C)=C\C=C\C(C)=C\C(=O)O)C(C)(C)CCC1` [9-cis retinoic acid], for which the “effect of adding 9-cis retinoic acid on neuroprotection by 15d-PGJ2” value in data set [1] (1 μM 9-cis retinoic acid with 15d-PGJ2, glutamate exposure) is given as “did not alter the neuroprotective effects”. Regarding `CC(C)(c1ccc(OCC2CO2)cc1)c1ccc(OCC2CO2)cc1` (stereo not shown) [BADGE, Bisphenol diglycidyl ether], the “toxicity in the cell model” value in data set [1] (at concentrations close to Ki (100 μM)) was “showed some toxicity”. Moreover, the Ki in data set [2] (read-out: Ki value as PPARγ antagonist) was 100000 nM. Take `CCCc1c(OCCCOc2ccc(OCC(=O)O)cc2)ccc(C(C)=O)c1O` [L-165041]: the “effect on glutamate toxicity” value in data set [1] (1 nM to 50 μM, pretreated 24 h, glutamate 20 mM) is “failed to affect glutamate toxicity”. The “concentrations inducing weak activity of PPARγ” value in data set [3] was over 51 µM. Moreover, in data set [4], the concentration for a half-maximal effect (EC50) is about 500 nM. Consider `COC(=O)CCCCC/C=C1/C(=O)C=C[C@H]1CCCCCCc1ccc(C)cc1` [NEPP-11], for which the “decrease of infarct volume” value in data set [5] was “about 50%”. In the case of `CCCCC[C@H](O)/C=C/[C@H]1C=CC(=O)[C@@H]1CCCCCCC(=O)O` [PGA1], the “neuroprotective effect of prostaglandins against glutamate toxicity” value (“neuroprotective effect of prostaglandins” below) in data set [1] is on record as “neuroprotective effects”. As to `CCCCC[C@H](O)/C=C/[C@H]1C=CC(=O)[C@@H]1C/C=C\CCCC(=O)O` [PGA2], in data set [1], the “neuroprotective effect of prostaglandins” value is “neuroprotective effects”.

As to `CCCCC[C@H](O)/C=C/C1=C(C/C=C\CCCC(=O)O)C(=O)CC1` [PGB2], in data set [1], the “neuroprotective effect of prostaglandins” value was “did not display any neuroprotective effects”. As to `Cc1cccc(Nc2cc(Cl)nc(SCC(=O)O)n2)c1C` [WY 14,643], the “effect at the highest concentration on glutamate toxicity” value in data set [1] (highest concentration tested, glutamate 20 mM) is on record as “enhanced glutamate toxicity”. In data set [1] (pretreatment 24 h, 1 to 40 μM, glutamate 20 mM), the “prevention of glutamate-induced cell death” value is recorded as “failed to prevent glutamate-induced cell death”. Also, in data set [6], the EC50 is about 1500 nM. Regarding `CC1(COc2ccc(CC3SC(=O)NC3=O)cc2)CCCCC1` (stereo not shown) [ciglitazone, 5-[4-(1-methylcyclohexylmethoxy)benzyl]-thiazolidine-2,4-dione], the neuroprotective effects result in data set [1] (concentrations up to 40 μM) is listed as “did not have any neuroprotective effects”. For the same compound, the “protection against glutamate toxicity” value in data set [1] (pretreatment at various concentrations) is given as “failed to protect”. The “affinity for PPAR-γ” value in data set [2] (similar to that of 15d-PGJ2) was “low micromolar (μM) range”.
